{"source": "patent US20190137505A1", "about": "(THE ARIZONA BOARD OF REGENTS ON BEHALF OF THE UNIVERSITY OF …, priority 2015, published 2019)", "target": "T1, plasminogen (Homo sapiens, UniProt P00747)", "T1 construct": "Glu-Pg, uPA, tPA, fibrinogen, and chromogenic substrate for Pn were purchased from Molecular Innovations (Novi, Mich.); purchased Molecular Innovations (Novi, Mich.)", "T1 sequence (P00747 20-810 limits assumed)": "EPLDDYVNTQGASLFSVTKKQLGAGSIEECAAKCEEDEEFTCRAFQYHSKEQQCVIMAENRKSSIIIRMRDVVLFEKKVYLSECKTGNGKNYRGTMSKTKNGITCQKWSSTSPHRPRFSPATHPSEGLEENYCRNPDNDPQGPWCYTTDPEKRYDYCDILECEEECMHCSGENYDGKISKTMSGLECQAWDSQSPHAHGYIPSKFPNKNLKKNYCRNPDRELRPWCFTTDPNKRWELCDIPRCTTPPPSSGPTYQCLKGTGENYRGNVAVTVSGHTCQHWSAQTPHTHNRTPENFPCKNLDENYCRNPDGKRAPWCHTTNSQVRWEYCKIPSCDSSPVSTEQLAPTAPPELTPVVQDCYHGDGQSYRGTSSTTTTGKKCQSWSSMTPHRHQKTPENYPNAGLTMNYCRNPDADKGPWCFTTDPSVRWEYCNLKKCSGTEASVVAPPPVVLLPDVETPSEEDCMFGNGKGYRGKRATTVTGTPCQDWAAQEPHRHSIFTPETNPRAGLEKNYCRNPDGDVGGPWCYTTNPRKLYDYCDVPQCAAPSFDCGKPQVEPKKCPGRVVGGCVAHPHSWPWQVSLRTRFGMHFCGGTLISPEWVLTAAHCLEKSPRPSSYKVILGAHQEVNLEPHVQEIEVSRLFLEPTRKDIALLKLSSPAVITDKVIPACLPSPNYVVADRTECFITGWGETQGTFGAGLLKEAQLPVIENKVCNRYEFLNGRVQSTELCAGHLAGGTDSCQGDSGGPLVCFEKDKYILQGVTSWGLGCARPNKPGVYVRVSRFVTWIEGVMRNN", "test": "LC-MS/MS identification of sites of MG adduction on plasminogen in vitro (Tables 1 and 12)", "details": "500 μM MG, 24 hr", "method": "10 μg Pg was incubated with MG (50-500 μM) in tris-buffered saline (TBS) for 24 hours at 37° C. Following modification, sample volumes were increased to 150 μL and placed in 5 kDa spin filters to reduce volume and remove excess MG from solution.\nMG-modified (500 μM) and unmodified Pg control (same incubation conditions without MG) were added to 250 μL amount of rehydration buffer (6M urea, 2M thiourea, 2% CHAPS, 100 mM DTT, 0.5% 3-10 ampholytes) and 5 μL of 3-10 ampholytes (Bio-Rad). Sample rehydrated with a 13 cm 4-7 pH isoelectric focusing strip (GE Healthcare) overnight. Following rehydration, strips were placed in a Bio-Rad PROTEAN IEF Cell focusing instrument. Strips were first focused for 1 hour at 500 V, and then run at a maximum of 8,000V until the strips have reached a final total of 45,000 V/hrs at which point gels are held at 500V until removed. Focused strips were removed, reduced with DTT, cysteines carbamidomethylated with iodoacetamide, and run on a 4-20% gradient Criterion gel for 55 minutes at 200V. Gels were stained for stained according to manufacturer instructions with Imperial Blue Protein (ThermoScientific, Rockford, Ill.) and destained immediately with water. Gel bands were excised and trypsin digested.\nCoomassie stained gel-bands were excised and washed in ddH2O for 15 min. H2O was removed and bands were incubated in 50/50 acetonitrile (ACN):ddH2O for 15 min. ACN:ddH2O was removed and bands were incubated with ACN for 5 min. ACN was removed and gels were incubated with 100 mM ammonium bicarbonate (AMBIC). An equal volume of ACN was added to make 1:1 solution and was incubated for 15 min. The ACN/AMBIC solution was removed and remaining gel bands were dried by speed-vacuum. 10 mM dithiothreitol (DTT) was added to each band and incubated at 56° C. for 45 min. DTT was removed and sample brought to room temperature (RT). Iodoacetamide (55 mM) was added to each sample and incubated at RT for 30 min in dark. Iodoacetamide was removed and 100 mM AMBIC was added and bands were incubated for 5 min. An equal volume of ACN was added to make a 1:1 solution and incubated for 15 min. The ACN/AMBIC solution was removed and bands were dried by speed-vacuum. Bands were digested with trypsin (400 ng/band) in 50 mM AMBIC and incubated on ice for 45 min. Tryptic solution was removed and 50 mM AMBIC was added to each band and incubated overnight at 37° C. to complete digestion. Digests were acidified using 10% trifluoroacetic acid (TFA). Supernatant was saved. Band was covered with TFA:ACN (0.1%:60%) and sonicated at 20° C. water bath for 30 min. Supernatant was combined with previous fraction. Sampled were speed vacuumed to a final volume of 10 μL prior to LC-MS/MS analysis on an LTQ Orbitrap Velos mass spectrometer as described below.\nLC-MS/MS analysis of in-gel trypsin digested-proteins (Shevchenko et al., 1996) was carried out using a LTQ Orbitrap Velos mass spectrometer (Thermo Fisher Scientific, San Jose, Calif.) equipped with an Advion nanomate ESI source (Advion, Ithaca, N.Y.), following ZipTip (Millipore, Billerica, Mass.) C18 sample clean-up according to the manufacturer's instructions. Peptides were eluted from a C18 precolumn (100-μm id×2 cm, Thermo Fisher Scientific) onto an analytical column (75-μm ID×10 cm, C18, Thermo Fisher Scientific) using a 5-20% gradient of solvent B (acetonitrile, 0.1% formic acid) over 65 minutes, followed by a 20-35% gradient of solvent B over 25 minutes, all at a flow rate of 400 nl/min. Solvent A consisted of water and 0.1% formic acid. Data dependent scanning was performed by the Xcalibur v 2.1.0 software (Andon et al., 2002) using a survey mass scan at 60,000 resolution in the Orbitrap analyzer scanning m/z 350-1600, followed by collision-induced dissociation (CID) tandem mass spectrometry (MS/MS) of the fourteen most intense ions in the linear ion trap analyzer. […]", "data": [{"smiles": "CC(=O)C=O", "note": "[MG, Methylglyoxal]", "values": [{"measurement": "Spectra Observed", "setting": "site 312, MG-DH, RAPWC(+57)HTTNSQVR", "value": 10}, {"measurement": "Spectra Observed", "setting": "site 312, MG-HI, RAPWC(+57)HTTNSQVR", "value": 8}, {"measurement": "Spectra Observed", "setting": "site 324, MG-DH, RAPWC(+57)HTTNSQVRWEYC(+57)K", "value": 4}, {"measurement": "Spectra Observed", "setting": "site 324, MG-HI, APWC(+57)HTTN SQVRWEYC(+57)K", "value": 3}, {"measurement": "Spectra Observed", "setting": "site 324, MG-HI, RAPWC(+57)HTTNSQVRWEYC(+57)K", "value": 7}, {"measurement": "Spectra Observed", "setting": "site 389, MG-DH, C(+57)QSWSSMTPHRHQK", "value": 2}, {"measurement": "Spectra Observed", "setting": "site 389, MG-DH, KC(+57)QSWSSMTPHRHQK", "value": 1}, {"measurement": "Spectra Observed", "setting": "site 389, MG-HI, C(+57)QSWSSMTPHRHQK", "value": 4}, {"measurement": "Spectra Observed", "setting": "site 389, MG-HI, KC(+57)QSWSSMTPHRHQK", "value": 1}, {"measurement": "Spectra Observed", "setting": "site 474, MG-DH, GKRATTVTGTPC(+57)QDWAAQEPHR", "value": 1}, {"measurement": "Spectra Observed", "setting": "site 474, MG-DH, RATTVTGTPC(+57)QDWAAQEPHR", "value": 3}, {"measurement": "Spectra Observed", "setting": "site 474, MG-HI, GKRATTVTGTPC(+57)QDWAAQEPHR", "value": 4}, {"measurement": "Spectra Observed", "setting": "site 474, MG-HI, RATTVTGTPC(+57)QDWAAQEPHR", "value": 3}, {"measurement": "Spectra Observed", "setting": "site 493, MG-DH, ATTVTGTPC(+57)QDWAAQEPHRHSIFTPETNPR", "value": 4}, {"measurement": "Spectra Observed", "setting": "site 493, MG-DH, RATTVTGPC(+57)QDWAAQEPHRHSIFTPETNPR", "value": 3}, {"measurement": "Spectra Observed", "setting": "site 493, MG-HI, ATTVTGTPC(+57)QDWAAQEPHRHSIFTPETNPR", "value": 6}, {"measurement": "Spectra Observed", "setting": "site 493, MG-HI, RATTVTGPC(+57)QDWAAQEPHRHSIFTPETNPR", "value": 4}, {"measurement": "Spectra Observed", "setting": "site 504, MG-DH, HSIFTPETNPRAGLEK", "value": 9}, {"measurement": "Spectra Observed", "setting": "site 504, MG-HI, HSIFTPETNPRAGLEK", "value": 16}, {"measurement": "Spectra Observed", "setting": "site 530, MG-DH, NPDGDVGGPWC(+57)YTTNPRK", "value": 9}, {"measurement": "Spectra Observed", "setting": "site 530, MG-HI, NPDGDVGGPWC(+57)YTTNPRK", "value": 12}, {"measurement": "Spectra Observed", "setting": "site 530, MG-HI, NYC(+57)RNPDGDVGGPWC(+57)YTTNPRK", "value": 3}, {"measurement": "Spectra Observed", "setting": "site 561, MG-DH, C(+57)PGRVVGGC(+57)VAHPHSWPWQVSLR", "value": 5}, {"measurement": "Spectra Observed", "setting": "site 561, MG-DH, CPGRVVGGCVAHPHSWPWQVSLR", "value": 1}, {"measurement": "Spectra Observed", "setting": "site 561, MG-DH, KC(+57)PGRVVGGC(+57)VAHPHSWPWQVSLR", "value": 10}, {"measurement": "Spectra Observed", "setting": "site 561, MG-DH, KCPGRVVGGCVAHPHSWPWQVSLR", "value": 1}, {"measurement": "Spectra Observed", "setting": "site 561, MG-HI, C(+57)PGRVVGGC(+57)VAHPHSWPWQVSLR", "value": 5}, {"measurement": "Spectra Observed", "setting": "site 561, MG-HI, KC(+57)PGRVVGGC(+57)VAHPHSWPWQVSLR", "value": 12}, {"measurement": "Spectra Observed", "setting": "site 582, MG-DH, TRFGMHFC(+57)GGTLISPEWVLTAAHC(+57)LEK", "value": 1}, {"measurement": "Spectra Observed", "setting": "site 582, MG-HI, TRFGM(+16)HFC(+57)GGTLISPEWVLTAAHC(+57)LEK", "value": 1}, {"measurement": "Spectra Observed", "setting": "site 582, MG-HI, TRFGMHFC(+57)GGTLISPEWVLTAAHC(+57)LEK", "value": 1}, {"measurement": "Spectra Observed", "setting": "site 644, MG-HI, LFLEPTRK", "value": 2}, {"measurement": "Spectra Observed", "setting": "site 712, MG-DH, VC(+57)NRYEFLNGR", "value": 5}, {"measurement": "Spectra Observed", "setting": "site 712, MG-HI, VC(+57)NRYEFLNGR", "value": 4}, {"measurement": "Spectra Observed", "setting": "site 767, MG-DH, DKYILQGVTSWGLGC(+57)ARPNKPGVYVR", "value": 8}, {"measurement": "Spectra Observed", "setting": "site 767, MG-DH, YILQGVTSWGLGC(+57)ARPNKPGVYVR", "value": 6}, {"measurement": "Spectra Observed", "setting": "site 767, MG-HI, DKYILQGVTSWGLGC(+57)ARPNKPGVYVR", "value": 11}, {"measurement": "Spectra Observed", "setting": "site 767, MG-HI, YILQGVTSWGLGC(+57)ARPNKPGVYVR", "value": 6}, {"measurement": "Spectra Observed", "setting": "site 779, MG-DH, VSRFVTWIEGVM(+16)R", "value": 5}, {"measurement": "Spectra Observed", "setting": "site 779, MG-DH, VSRFVTWIEGVMR", "value": 2}, {"measurement": "Spectra Observed", "setting": "site 779, MG-HI, VSRFVTWIEGVM(+16)R", "value": 9}, {"measurement": "Spectra Observed", "setting": "site 779, MG-HI, VSRFVTWIEGVMR", "value": 4}, {"measurement": "Spectra Observed", "setting": "site 789, MG-DH, FVTWIEGVM(+16)RNN", "value": 6}, {"measurement": "Spectra Observed", "setting": "site 789, MG-DH, FVTWIEGVMRNN", "value": 13}, {"measurement": "Spectra Observed", "setting": "site 789, MG-HI, FVTWIEGVM(+16)RNN", "value": 10}, {"measurement": "Spectra Observed", "setting": "site 789, MG-HI, FVTWIEGVMRNN", "value": 14}, {"measurement": "Spectra Observed", "setting": "sites 115/117, MG-DH, MG-HI, WSSTSPHRPRFSPATHPSEGLEENYC(+57)R", "value": 2}, {"measurement": "Spectra Observed", "setting": "sites 115/117, MG-DH, WSSTSPHRPRFSPATHPSEGLEENYC(+57)R", "value": 1}, {"measurement": "Spectra Observed", "setting": "sites 115/117, MG-HI, WSSTSPHRPRFSPATHPSEGLEENYC(+57)R", "value": 3}, {"measurement": "Spectra Observed", "setting": "sites 220/223, MG-DH, NPDRELRPWC(+57)FTTDPNKR", "value": 3}, {"measurement": "Spectra Observed", "setting": "sites 220/223, MG-HI, MG-DH, NPDRELRPWC(+57)FTTDPNKR", "value": 9}, {"measurement": "Spectra Observed", "setting": "sites 220/223, MG-HI, NPDRELRPWC(+57)FTTDPNKR", "value": 8}, {"measurement": "Spectra Observed", "setting": "sites 312/324, MG-DH, MG-HI, RAPWC(+57)HTTNSQVRWEYC(+57)K", "value": 7}, {"measurement": "Spectra Observed", "setting": "sites 312/324, MG-DH, RAPWC(+57)HTTNSQVRWEYC(+57)K", "value": 3}, {"measurement": "Spectra Observed", "setting": "sites 312/324, MG-HI, RAPWC(+57)HTTNSQVRWEYC(+57)K", "value": 2}, {"measurement": "Spectra Observed", "setting": "sites 474/493, MG-DH, MG-HI, RATTVTGTPCQDWAAQEPHRHSIFTPETNPR", "value": 1}, {"measurement": "Spectra Observed", "setting": "sites 474/493, MG-HI, RATTVTGTPC(+57)QDWAAQEPHRHSIFTPETNPR", "value": 1}, {"measurement": "Spectra Observed", "setting": "sites 489/504, MG-HI, MG-DH, ATTVTGTPC(+57)QDWAAQEPHRHSIFTPETNPRAGLEK", "value": 1}, {"measurement": "Spectra Observed", "setting": "sites 779/789, MG-DH, VSRFVTWIEGVM(+16)RNN", "value": 1}, {"measurement": "Spectra Observed", "setting": "sites 779/789, MG-HI, MG-DH, VSRFVTWIEGVM(+16)RNN", "value": 3}, {"measurement": "Spectra Observed", "setting": "sites 779/789, MG-HI, VSRFVTWIEGVM(+16)RNN", "value": 3}]}]}
